± gives the expanded uncertainty stated by the source.
Conditions: Liquid

| Critical pressure | Critical temperature | Compound |
| --- | --- | --- |
| 4270 ± 200 kPa | 840 ± 13 K | O=C(O)CCCC(=O)O [1,5-pentanedioic acid] |
| 3850 ± 150 kPa | 841 ± 13 K | O=C(O)CCCCC(=O)O [1,6-hexanedioic acid] |
| 3280 ± 130 kPa | 842 ± 13 K | O=C(O)CCCCCC(=O)O [1,7-heptanedioic acid] |
| 2970 ± 120 kPa | 843 ± 13 K | O=C(O)CCCCCCC(=O)O [1,8-octanedioic acid] |
| 2720 ± 110 kPa | 844 ± 13 K | O=C(O)CCCCCCCC(=O)O [1,9-nonanedioic acid] |
| 2500 ± 100 kPa | 845 ± 13 K | O=C(O)CCCCCCCCC(=O)O [1,10-decanedioic acid] |
| 1900 ± 80 kPa | 862 ± 13 K | O=C(O)CCCCCCCCCCCCC(=O)O [1,12-dodecanedicarboxylic acid] |
| 2150 ± 90 kPa | 859 ± 13 K | O=C(O)CCCCCCCCCCC(=O)O [1,12-dodecanedioic acid] |
| 6590 ± 300 kPa | 851 ± 20 K | O=C(O)CCC(=O)O [butanedioic acid] |
